The values below come from patent US8389565B2, “Glycosidase inhibitors and methods of synthesizing same” (Simon Fraser University, priority 2000, dated 2013).

Each structure is given as a SMILES string. Where a name gives a salt, the structure may show the parent alone. Read-outs that look alike come from different tables or passages of the source.

The target of data set [1] is T1, porcine pancreatic α-amylase (PPA) (Sus scrofa, UniProt P00690).
T1 construct: purchased Sigma
T1 sequence (P00690 16-511): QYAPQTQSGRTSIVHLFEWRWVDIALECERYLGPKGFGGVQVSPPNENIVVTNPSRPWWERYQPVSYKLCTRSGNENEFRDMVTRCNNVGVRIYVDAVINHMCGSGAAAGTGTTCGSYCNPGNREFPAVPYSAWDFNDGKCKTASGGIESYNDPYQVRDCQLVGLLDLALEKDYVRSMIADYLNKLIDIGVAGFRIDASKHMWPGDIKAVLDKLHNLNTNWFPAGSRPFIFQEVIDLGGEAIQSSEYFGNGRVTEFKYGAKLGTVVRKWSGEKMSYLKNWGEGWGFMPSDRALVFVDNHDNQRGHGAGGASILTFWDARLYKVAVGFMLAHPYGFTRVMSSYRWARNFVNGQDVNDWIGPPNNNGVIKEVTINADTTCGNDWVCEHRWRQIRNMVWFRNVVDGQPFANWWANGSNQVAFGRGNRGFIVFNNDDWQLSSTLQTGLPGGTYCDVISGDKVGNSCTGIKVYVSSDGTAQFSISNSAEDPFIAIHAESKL
In words: Inhibition of porcine pancreatic α-amylase activity towards DP17 amylose. Format: biochemical. From the text: (§1) Porcine pancreatic α-amylase (PPA) and bovine serum albumin (BSA) were purchased from Sigma. Amylose EX-1 (DP17; average degree of polymerization 17) was purchased from Hayashibara Chemical Laboratories (Okayama, Japan). Recombinant barley α-amylase isozyme 1 (AMY1) was produced and purified as described.^23 An aliquot of the porcine pancreatic x-amylase (PPA) crystalline suspension (in ammonium sulfate) was dialyzed extensively against the assay buffer without BSA. The enzyme concentration was determined by aid of amino acid analysis as determined using an LKB model Alpha Plus amino acid analyzer. […] Six different final inhibitor concentrations were used in the range 1 μM-5 mM. The inhibitor was pre-incubated with enzyme for 5 min at 37° C. before addition of substrate.

Data set [2] addresses T2, Recombinant barley α-amylase isozyme 1 (AMY1) (Hordeum vulgare, UniProt P00693).
T2 construct: made in house
The data set can be described thus: Inhibition of barley α-amylase isozyme 1 activity towards DP17 amylose. The data set is classed as biochemical.
Text: as §1

For data set [3], the target named is T3, Human Pancreatic α-Amylase (HPA) (Homo sapiens, UniProt P04746).
T3 sequence (P04746 16-511): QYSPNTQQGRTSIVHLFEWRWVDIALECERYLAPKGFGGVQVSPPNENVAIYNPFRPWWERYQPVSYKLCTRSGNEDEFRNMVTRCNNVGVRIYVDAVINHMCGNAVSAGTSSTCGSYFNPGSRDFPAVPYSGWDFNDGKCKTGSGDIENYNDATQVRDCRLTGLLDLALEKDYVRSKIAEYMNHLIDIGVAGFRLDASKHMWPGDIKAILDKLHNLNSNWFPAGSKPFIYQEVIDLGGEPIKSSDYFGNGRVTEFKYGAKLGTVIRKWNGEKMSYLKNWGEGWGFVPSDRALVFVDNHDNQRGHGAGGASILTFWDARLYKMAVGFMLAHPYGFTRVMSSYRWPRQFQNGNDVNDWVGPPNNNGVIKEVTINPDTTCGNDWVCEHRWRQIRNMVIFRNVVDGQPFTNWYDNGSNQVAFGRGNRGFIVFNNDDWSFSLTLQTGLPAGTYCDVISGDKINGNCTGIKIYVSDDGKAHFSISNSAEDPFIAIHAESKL
The data set can be described thus: Human pancreatic α-amylase assay, hydrolysis of 2,4-Dinitrophenyl maltotrioside. Particulars: for Ki: n.a. = not active. Format: biochemical. On the procedure:
These assays were performed with purified enzyme. The ability of candidate inhibitors to inhibit the hydrolysis of 2,4-Dinitrophenyl maltotrioside was monitored by UV-visible spectroscopy of the released 2,4-dinitrophenol.

Data set [4] concerns the target Maltase Glucoamylase (MGA) (Homo sapiens, UniProt O43451). The data set can be described thus: MGA activity in extracts of COS cells transfected with MGA5′ (maltase subunit) construct, maltose hydrolysis, glucose oxidase colorimetric assay. Format: biochemical. Particulars: for Ki MGA (Human intestinal maltase glucoamylase): only the order of magnitude of activity (nM, μM, mM) or n.a. = not active. Details: COS cells transfected with MGA5′ (maltase subunit clone 10) construct were used; expressed in transfected cells; host or cells: COS cells. On the procedure: In the assays, COS cells transfected with MGA5′ (maltase subunit clone 10) construct were used. Activity measurements were performed with cell extracts containing MGA. Maltose hydrolysis was monitored by measurement of the glucose released by a glucose oxidase colorimetric assay. Inhibition of this hydrolysis was measured as a reduction in OD reading.
In practice, an OD reading in the absence of the inhibitor was recorded, followed by a reading in the presence of the inhibitor. The percent reduction in OD reading upon administering a candidate inhibitor (see Table 11) was then correlated with a percent inhibition for a given concentration.

For data set [5], the target named is T4, glucoamylase G2 form from Aspergillus niger (Aspergillus niger, UniProt P69328).
T4 construct: purchased Novo Nordisk, Bagsvaerd, Denmark
The data set can be described thus: Inhibition of glucoamylase G2-catalyzed hydrolysis of maltose. Format: biochemical. The method, then:
The glucoamylase G2 form from Aspergillus niger was purified from a commercial enzyme (Novo Nordisk, Bagsvaerd, Denmark) as described.^19,20 The initial rates of glucoamylase G2-catalyzed hydrolysis of maltose was tested with 1 mM maltose as substrate in 0.1 M sodium acetate pH 4.5 at 45° C. using an enzyme concentration of 7.0×10^−8 M and five inhibitor concentrations in the range 1 μm-5 mM. The effect of the inhibition on rates of substrate hydrolysis were compared for the different compounds.

The test system of data set [6] is maltase activity in biopsies with live intestinal cells. In words: Maltase activity in biopsies with live intestinal cells. Particulars: 5 μM concentration. The data set is classed as cell-based, human. From the text: • 1) It appears that Acarbose acts principally by inhibiting human pancreatic α-amylase (HPA) and the breakdown of starch.
The test system of another data set is Sprague-Dawley rats. The data set can be described thus: In vivo maltose gavage in catheterized rats: plasma glucose and insulin. Details: species or system rat. Particulars: maltose gavage 1000 mg/kg with 25 mg/kg drug; for decrease of the 90 minute insulin AUC: versus Control. On the procedure: Five week old Sprague-Dawley rats were housed singly under a 12:12-h light-dark photoperiod and given free access to water and rat chow (Purina rodent chow). After one week of acclimation, chronic indwelling catheters were implanted.
Animals were anesthetized with a combination of Ketamine-Xylazine-Butorphanol (0.1 ml/100 g im). Analgesic (Butorphenol, 1 mg/kg sc) was administered following recovery from anesthesia and the following morning. Antibiotic was administered by one dose sc and in the drinking water for 4 days post-operative (Baytril, 5 mg/kg sc, Bayer, Toronto, Canada; Baytril, 50 mg/ml: 0.36 ml solution in 250 ml drinking water). A sterile catheter (Intramedic PE-50 with ˜3 cm beveled Silastic tip) was placed in the left carotid artery and the distal end of the catheter was tunneled subcutaneously, exteriorized, and anchored at the nape of the neck. The catheters were protected from chewing by a stainless steel tether connected to a swivel system which allowed free movement of the animal and easy access to the catheter by the investigator.
The animals were allowed to recover for 1 week. Experiments were performed on conscious, unrestrained animals that had been fasted overnight by removal of chow from the cage hoppers at 2100. At 0800 the following morning animals were weighed and Atropine (0.05 mg/kg sc) was administered as a […]. At baseline, animals were administered a bolus of maltose by oral gavage (1000 mg/kg body weight) with or without drug (25 mg/kg body weight for all agents). Blood samples (0.1 mL) were taken via the implanted carotid line at -15 and -5 min for the baseline and at 7, 15, 30, 60, 90, 120, 210, 300 min.
Blood samples were kept on ice in microcentrifuge tubes and then were centrifuged. The plasma was stored at −20° C. until it was assayed. Plasma volume was triple replaced with heparinized saline (10u/mL), but red blood cells were not reinfused. Plasma glucose was assayed with the glucose oxidase method (Trinder RAICHEM Division of Hemagen Diagnostics, Inc. San Diego, Calif.). Plasma insulin concentrations were measured by rat insulin ELISA (Crystal Chem INC, Downers Grove, Ill.). Six experiments were performed for each treatment (control, Blintol, Acarbose, Salacinol).
All data are presented as means±SE. The significance of changes in plasma glucose and insulin were tested by two-way repeated-measures analysis of variance and were performed with the Statistical Analysis System for Windows (version 6.3, SAS Institute, Cary, N.C.). AUCs were compared using unpaired t-tests.

A further data set relates to sucrase. Particulars: cited from earlier work.
Data set [7] in a line: Stability on storage in aqueous solution. The data set is classed as physicochemical.
[8] abbreviates: read-out: Ki PPA (Porcine pancreatic α-amylase).
[9] abbreviates: read-out: Ki AMY1 (Barley α-amylase).

T2 sequence (P00693 25-438): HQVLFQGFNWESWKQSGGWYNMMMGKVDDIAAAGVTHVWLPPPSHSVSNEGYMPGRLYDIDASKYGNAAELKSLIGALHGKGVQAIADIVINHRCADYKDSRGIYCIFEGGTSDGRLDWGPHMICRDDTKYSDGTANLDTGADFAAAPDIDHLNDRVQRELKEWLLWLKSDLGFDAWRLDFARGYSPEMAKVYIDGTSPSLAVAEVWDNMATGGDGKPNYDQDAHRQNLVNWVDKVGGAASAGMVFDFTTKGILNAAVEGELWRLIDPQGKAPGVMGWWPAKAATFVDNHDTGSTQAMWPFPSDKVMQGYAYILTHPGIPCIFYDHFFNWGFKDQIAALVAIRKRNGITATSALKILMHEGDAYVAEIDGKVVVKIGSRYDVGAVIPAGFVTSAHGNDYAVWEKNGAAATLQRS
T4 sequence (P69328 other isoform, or with tags, fused parts or gaps): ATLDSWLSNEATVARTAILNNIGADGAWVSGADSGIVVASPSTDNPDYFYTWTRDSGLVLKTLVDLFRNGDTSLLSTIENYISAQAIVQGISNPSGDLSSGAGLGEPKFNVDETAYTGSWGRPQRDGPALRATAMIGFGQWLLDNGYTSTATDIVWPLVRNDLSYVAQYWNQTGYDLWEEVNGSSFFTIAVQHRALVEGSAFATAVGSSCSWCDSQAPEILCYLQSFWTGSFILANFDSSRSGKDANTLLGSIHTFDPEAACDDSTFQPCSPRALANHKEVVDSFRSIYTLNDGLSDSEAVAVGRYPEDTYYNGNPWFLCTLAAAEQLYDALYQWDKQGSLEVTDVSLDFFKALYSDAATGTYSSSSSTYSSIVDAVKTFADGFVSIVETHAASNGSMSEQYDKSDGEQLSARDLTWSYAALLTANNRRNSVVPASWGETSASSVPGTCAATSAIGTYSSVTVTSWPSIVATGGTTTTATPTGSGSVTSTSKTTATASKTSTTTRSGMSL
Chain of Maltase Glucoamylase (MGA) (O43451 356-737 limits assumed): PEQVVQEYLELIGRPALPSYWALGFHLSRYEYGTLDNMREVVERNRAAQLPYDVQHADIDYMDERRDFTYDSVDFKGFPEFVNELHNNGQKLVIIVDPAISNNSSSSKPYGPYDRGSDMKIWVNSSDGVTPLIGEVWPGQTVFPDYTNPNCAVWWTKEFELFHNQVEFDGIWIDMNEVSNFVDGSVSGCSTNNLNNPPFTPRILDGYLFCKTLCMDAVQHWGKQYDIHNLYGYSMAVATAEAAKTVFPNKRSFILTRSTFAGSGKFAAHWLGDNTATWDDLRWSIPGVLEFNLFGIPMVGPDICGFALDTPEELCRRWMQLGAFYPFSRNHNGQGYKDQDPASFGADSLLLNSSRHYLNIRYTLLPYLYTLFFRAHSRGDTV

Turning to `O=S(=O)([O-])O[C@@H](CO)[C@H](O)C[Se@+]1C[C@@H](O)[C@H](O)[C@H]1CO`, the Ki in data set [1], in data set [2] and in data set [3] was > 5000 µM each time. Besides, the “Ki MGA (Human intestinal maltase glucoamylase)” value (“Ki MGA” below) in data set [4] is “nM”.

For the molecule `O=S(=O)([O-])OC(CO)C(O)C[S+]1CC(O)C(O)C1CO` [Salacinol, 1,4-Dideoxy-1,4-[[(2S,3S)-2,4-dihydroxy-3-(sulfooxy)butyl]-episulfoniumylidene]-D-arabinitol Inner Salt, reference compound], the affinity in data set [5] corresponds to a Ki of 1700 µM. Also, in [1] (amylose DP17, pH 6.9, 37° C., read-out: Ki value, PPA), the Ki stood at 10 ± 2 µM. Moreover, the inhibition constant Ki in [2] (amylose DP17, pH 5.5, 37° C., read-out: Ki value, AMY1) worked out at 15 ± 1 µM. Moreover, the “inhibition of HPA (in words)” value in data set [3] was “inhibits both HPA and MGA”. In addition, the “percent inhibition of maltase activity” value in [6] is 13%. In the data set with Sprague-Dawley rats, the “plasma glucose profile (in words)” value was “significantly lower post-prandial plasma glucose”; the “plasma insulin profile (in words)” value was “significantly lower post-prandial plasma glucose and insulin concentrations”; the “time at which insulin values were different from basal” value amounted to 15 min; the “time at which plasma glucose returned to basal” value came to 60 min. Further, in the data set with Sprague-Dawley rats, the “decrease of the 90 minute insulin AUC” value stood at 65%. In addition, the “glucose Area Under the Curve, 0-90 minutes (in words)” value with Sprague-Dawley rats (excursion above basal) is given as “slightly lower 90 minute AUC's than Acarbose”. For the same molecule, in data set [4], the “inhibition of MGA (in words)” value is “inhibits both HPA and MGA”. In addition, in [4] (read-out: percent inhibition of the breakdown of maltose), the inhibition at 5 µM was 60%.

Take `O=S(=O)(O)O[C@H](CO)[C@@H](O)CN1C[C@H](O)[C@@H](O)[C@@H]1CO`: the Ki in data set [5] (read-out: Ki GA (Glucoamylase)) was > 8000 µM; in data set [1] (setting [8]) it was > 5000 µM; in data set [2] (setting [9]), > 5000 µM; in [3], 400 µM.

As for `O=S(=O)([O-])O[C@@H]([C@H](O)[C@H](O)[C@@H](O)CO)[C@H](O)C[S+]1C[C@@H](O)[C@H](O)[C@H]1CO` (stereo partly drawn) [Kotalanol], the “inhibitory activity against sucrase (in words)” value with sucrase was “more potent inhibitory activity against sucrase than Salicinol and Acarbose”.

Turning to `O=S(=O)(O)O[C@H](CO)[C@@H](O)CN1C[C@H](O)[C@@H](O)[C@H](O)[C@H]1CO` [Compound 67b, 1,5-Dideoxy-1,5-[[N-(2R,RS)-2,4-dihydroxy-3-(sulfooxy)-butyl]iminoonium]-D-glucitol], the “stability of the 3′-sulfate ester on storage” value in [7] (D2O/NaOD at pH>10, 2 days at ambient temperature) is “completely hydrolyzed”.

For `O=S(=O)([O-])O[C@H](CO)[C@@H](O)C[S@+]1C[C@@H](O)[C@H](O)[C@@H](O)C1`, in data set [3], the Ki was > 5000 µM. The “Ki MGA” value in data set [4] was “mM”.

`O=S(=O)([O-])OC(CO)C(O)C[Se+]1CC(O)C(O)C1CO` [Blintol, 1,4-Dideoxy-1,4-[[(2S,3S)-2,4-dihydroxy-3-(sulfooxy)butyl]episelenoniumylidene]-D-arabinitol Inner Salt]: in data set [6], the “percent inhibition of maltase activity” value is given as 50%. In the data set with Sprague-Dawley rats, the “time at which insulin values were different from basal” value is 15 min, the “time at which plasma glucose returned to basal” value is 60 min and the “decrease of the 90 minute insulin AUC” value worked out at 53%. Also, the “15 minute glucose excursion from basal” value with Sprague-Dawley rats (mean ± SE, n=6) came to 29.3 ± 6.5 mg/dL. Further, in [4], half-maximal inhibition (IC50) required 0.2 µM.

Turning to `O=S(=O)(O)O[C@@H](CO)[C@H](O)CN1C[C@@H](O)[C@H](O)[C@H]1CO`, the values for the Ki in data set [5] (read-out: Ki GA (Glucoamylase)), in [1] (setting [8]) and in data set [2] (setting [9]) were > 2500 µM, > 5000 µM and > 5000 µM, respectively. In addition, in data set [4], the “Ki MGA” value is on record as “mM”.

In the case of `O=S(=O)([O-])O[C@@H](CO)[C@H](O)C[S@+]1C[C@@H](O)[C@H](O)[C@H]1CO`, the Ki in data set [5] stood at 1710 µM; in data set [1] (setting [8]) it was 10 µM; in data set [2] (setting [9]) it was 15 µM; in data set [3] it was 75 µM.

As for `O=S(=O)([O-])O[C@H]1[C@H](O)C(O)O[C@@H]1C[S@+]1C[C@@H](O)[C@H](O)[C@H]1CO` (stereo partly drawn) [Compound 101, 3-O-sulfoxy-5-deoxy-5-[1,4-dideoxy-1,4-episufoniumylidene-D-arabinitol]-α/β-D-arabinose inner salt], in [7] (aqueous solution, several days at ambient temperature), the “stability on storage in aqueous solution” value was “unchanged”.

`O=S(=O)([O-])O[C@H](CO)[C@@H](O)C[Se+]1C[C@@H](O)[C@H](O)[C@@H](O)C1` (stereo partly drawn): the Ki in data set [3] was > 5000 µM.

With `O=S(=O)([O-])O[C@H](CO)[C@@H](O)C[S@@+]1C[C@@H](O)[C@H](O)[C@@H](O)C1`, the inhibitory constant (Ki) in [3] is > 5000 µM.

Broadly, the Ki is a dissociation constant, usually derived from enzyme kinetics or from competition with a known ligand. One may read the inhibition as the percentage by which the read-out fell short of the control. The term IC50 denotes the concentration that inhibits the measured activity by half. The low end stands for greater potency, the high end for weaker potency.
